We go through seven molecules from patent EP0603240B1, “SAFENING HERBICIDAL PYRAZOLYLSULFONYLUREAS” (priority 1991, dated 1993).

Holding throughout (format): in vivo
Data set [1] deals with corn. Put plainly: Example 13, Procedure II: Herbicide No. 1 + acetochlor (No. 6) with dichloroacetamide antidotes. Conditions: for safening of corn, assessment in words: Herbicide Nos. 1 and 6, Table 13. The procedure: (§1) Containers were filled and compacted with a fumigated silt loam top soil to a depth of about 1.3 cm from the top of the container. A first container was designated as an untreated control, a second container was designated as a herbicide control, and a third container was designated as a herbicide + antidote test container. Each of the containers was seeded with a crop species. A measured amount of herbicide dispersed or dissolved in acetone was applied to a measured quantity of soil. To this same quantity of soil treated with herbicide, there was added a measured amount of antidote dispersed or dissolved in acetone. The quantity of soil treated with the herbicide and antidote was thoroughly mixed to incorporate the herbicide and antidote in the soil uniformly. The seed bed in the third container of soil was covered with the soil treated with the herbicide and antidote and the container was leveled. For each test series, the seed beds of the first and second containers were likewise covered by soil layers. the cover layer of the first container was not treated with herbicide or antidote.
(§2) The containers were then placed on a bench in a greenhouse and sub-irrigated as required for the duration of the test. […] Plant response is measured in terms of percent injury. Antidote efficacy is indicated as the difference in plant injury by the herbicide(s) without the antidote and with the antidote.
(§3) This procedure is the same as Procedure I, but modified in the manner that after incorporation of the chemicals (herbicide and antidote) the containers with the covered seedbed were treated with an initial overhead irrigation equivalent to 0.6 cm rainfall, then subsequently sub-irrigated as required on greenhouse benches.
In this example a plurality of dichloroacetamide antidotes were tested for their safening efficacy against a herbicidal composition comprising Herbicide No. 1 and a co-herbicide, acetochlor (Herbicide No. 6) in corn in the presence of velvetleaf. The procedure used in this example was Procedure II above.

Data set [2] relates to corn. Nature of the data set: Example 1, greenhouse Procedure II: antidotes against Herbicide No. 1. Particulars: Herbicide No. 1, Table 1. The method, then: as §1, §2, §3
(§4) In the series of greenhouse tests described below, for routine screening purposes the herbicide/antidote compositions were tested in crop/weed combinations involving corn as the crop and either or both of the weeds barnyardgrass (Echinochloa crusgalli), a monocotyledonous weed, and velvetleaf (Abutilon theophrasti), a dicotyledonous weed. In the tables below, these weeds are indicated by the symbols "BYG" and "VL", respectively.
This example was designed to investigate the antidotal efficacy of a plurality of antidotes against Herbicide No. 1 in corn in the presence of barnyard grass and velvetleaf. The antidotes used in this example were Antidote Nos. 1-10, 12, 13 and 15.
The test in this example was conducted as described above for Procedure II. The antidotes were applied to the soil cover layer by pipet after spraying on the herbicide followed by incorporation and simulated rain.

In data set [3] the test system is corn. Nature of the data set: Example 17, Procedure II: Herbicide No. 1 + vernolate (No. 11) with antidotes. Particulars: Table 17. The procedure:
as §1
The containers were then placed on a bench in a greenhouse and sub-irrigated as required for the duration of the test. […] Plant response is measured in terms of percent injury. Antidote efficacy is indicated as the difference in plant injury by the herbicide(s) without the antidote and with the antidote. […]

Data set [4] has as its system corn. Put plainly: Example 4, Procedure I: Antidote Nos. 15 and 16 against Herbicide No. 1. The method, then:
as §1, §2
(§5) This example describes tests with Antidote Nos. 15 and 16 to safen Herbicide No. 1 according to Procedure I using corn and the weeds barnyardgrass and velvetleaf as the test plants.

In data set [5] the test system is corn. Nature of the data set: Example 5, Procedure I: Herbicide No. 1 + alachlor (No. 7) with Antidote Nos. 15 and 16. The method, then: as §1, §2, §5
(§6) In the tests described in this example, the same procedure described in Example 4 was performed simultaneously therewith and under the same conditions, except that a co-herbicide, alachlor, was included in the same composition with Herbicide No. 1 and Antidote Nos. 15 and 16. Alachlor (Herbicide No. 7 herein) is the active ingredient in the commercial product LASSO® herbicide.

Data set [6] concerns corn. Put plainly: Example 3, Procedure I: antidotes against Herbicide No. 1. The method, then: as §1, §2
(§7) This example details the results of tests with Antidote Nos. 12, 15 and 16 to safen Herbicide No. 1 over application rates ranging from 4.48 kg/ha down to 0.56 kg/ha, in corn in the presence of barnyardgrass. Procedure I described above was used in these tests.

In data set [7] the test system is corn. Nature of the data set: Example 12, Procedure II: Herbicide No. 1 + acetochlor (No. 6) with thirteen antidotes. Conditions: Herbicide No.6 2.24 kg/ha alone, no antidote. The procedure:
as §1, §2, §3
This example was designed to investigate the efficacy of thirteen different antidotes from different classes of chemistry as safeners against compositions of Herbicide No. 1 and acetochlor (Herbicide No. 6) as co-herbicide. Acetochlor is the active ingredient in the commercial herbicides GUARDIAN® and WENNER®.
The test procedure used in this example was Procedure II described above.

For data set [8], the system named is barnyardgrass (Echinochloa crusgalli). Nature of the data set: Example 5, Procedure I: Herbicide No. 1 + alachlor (No. 7) with Antidote Nos. 15 and 16. The procedure: as §1, §2, §4, §5, §6
In data set [9] the test system is velvetleaf (Abutilon theophrasti). The data set is described as above. The method, then:
as §1, §2, §4, §5, §6

The subject of data set [10] is barnyardgrass (Echinochloa crusgalli). Put plainly: Example 4, Procedure I: Antidote Nos. 15 and 16 against Herbicide No. 1. The procedure: as §1, §2, §4, §5
Data set [11] concerns velvetleaf (Abutilon theophrasti). The data set is described as above. The method, then: as §1, §2, §4, §5
In data set [12] the test system is barnyardgrass (Echinochloa crusgalli). Nature of the data set: Example 3, Procedure I: antidotes against Herbicide No. 1. The method, then:
as §1, §2, §4, §7

Where [13] appears, read: Herbicide No.1 4.48 + No.7 0.56 kg/ha + antidote 0.56 kg/ha.
Setting [14] is: Herbicide No.1 4.48 + No.7 0.56 kg/ha + antidote 2.24 kg/ha.
Where [15] appears, read: Herbicide No.1 4.48 + No.7 2.24 kg/ha + antidote 0.56 kg/ha.
[16] abbreviates: Herbicide No.1 4.48 + No.7 2.25 kg/ha + antidote 2.24 kg/ha.
[17] abbreviates: Herbicide No.1 6.72 + No.7 0.56 kg/ha + antidote 0.56 kg/ha.
The mark [18] stands for this setting: Herbicide No.1 6.72 + No.7 0.56 kg/ha + antidote 2.24 kg/ha.
The mark [19] stands for this setting: Herbicide No.1 6.72 + No.7 2.24 kg/ha + antidote 0.56 kg/ha.
The mark [20] stands for this setting: Herbicide No.1 6.72 + No.7 2.25 kg/ha + antidote 2.24 kg/ha.
The mark [21] stands for this setting: Herb. No. 1 4.48 kg/ha + antidote 0.56 kg/ha.
Setting [22] is: Herb. No. 1 4.48 kg/ha + antidote 2.24 kg/ha.
[23] abbreviates: Herb. No. 1 6.72 kg/ha + antidote 0.56 kg/ha.
Setting [24] is: Herb. No. 1 6.72 kg/ha + antidote 2.24 kg/ha.
The mark [25] stands for this setting: Herb. No. 1 0.56 kg/ha + antidote 0.56 kg/ha.
Setting [26] is: Herb. No. 1 0.56 kg/ha + antidote 2.24 kg/ha.
Setting [27] is: Herb. No. 1 0.56 kg/ha + antidote 8.96 kg/ha.
The mark [28] stands for this setting: Herb. No. 1 1.12 kg/ha + antidote 0.56 kg/ha.
[29] abbreviates: Herb. No. 1 1.12 kg/ha + antidote 2.24 kg/ha.
Setting [30] is: Herb. No. 1 1.12 kg/ha + antidote 8.96 kg/ha.
Where [31] appears, read: Herb. No. 1 2.24 kg/ha + antidote 0.56 kg/ha.
The mark [32] stands for this setting: Herb. No. 1 2.24 kg/ha + antidote 2.24 kg/ha.
Where [33] appears, read: Herb. No. 1 2.24 kg/ha + antidote 8.96 kg/ha.
Where [34] appears, read: Herb. No. 1 4.48 kg/ha + antidote 8.96 kg/ha.
[35] abbreviates: antidote 8.96 kg/ha alone, no herbicide.

For `CC1CN(C(=O)C(Cl)Cl)C(C)(C)O1` (stereo not drawn) [Antidote No. 5, Oxazolidine, 3-(dichloroacetyl)-2,2,5-trimethyl-], in the data set on corn [1], the “safening of corn, assessment in words” value is “Commercial-level safening was exhibited at all rates and combinations”.
Turning to `O=C(C(Cl)Cl)N1CCCC12CCCC2` [Antidote No. 9, 1-Azaspiro[4,4]noname, 1-(dichloroacetyl)-], the figures for the “safening of corn, assessment in words” value in the data set on corn [2] and in the data set with corn [3] were “best safening effect across quadruple treatments” and “best overall safening performance”, respectively.
Take `CC1(C)CN2C(=O)CCC2(C)N(C(=O)C(Cl)Cl)C1` (stereo not drawn) [Antidote No. 14, 5-Dichloroacetyl-3,3,6-trimethyl-9-oxo-1,5-diazabicyclo[4.3.0]nonane]: in the data set with corn [1], the “safening of corn, assessment in words” value is “Commercial-level safening was exhibited at all rates and combinations”.
For `CC1(C)OC(c2cccnc2)CN1C(=O)C(Cl)Cl` (stereo not drawn) [Antidote No. 16, Pyridine, 3-[3-(dichloroacetyl)-2,2-dimethyl-5-oxazolidinyl]-], the “safening of corn, assessment in words” value is “substantial safening of Herbicide No. 1” with corn [4] (Herbicide No. 1, Table 4); “substantial safening of corn” in the data set on corn [5] (Herbicide Nos. 1 and 7, Table 5); “excellent protection for corn” in the data set with corn [6] (Herbicide No. 1, Table 3).
Turning to `CCOCN(C(=O)CCl)c1c(C)cccc1CC` [Herbicide No.6], the “% Injury Corn” value is listed as 50% in the data set with corn [1] (Herbicide No.6 4.48 kg/ha alone, no antidote) and 25% in the data set with corn [7].
Turning to `CC1(C)CN2C(=O)CCC2(C)N(C(=O)C(Cl)Cl)C1` (stereo not drawn) [compound 14], in the data set with corn [1] (in vivo), the “% Injury Corn” value amounted to 5%.
On to `CC1(C)OC(c2cccnc2)CN1C(=O)C(Cl)Cl` (stereo not drawn) [compound 16], for which the “% Injury BYG” value in [8] (setting [13]) is given as 100%; in data set [8] (setting [14]), 100%; in data set [8] (setting [15]), 100%; in data set [8] (setting [16]), 100%; in data set [8] (setting [17]) it was 95%; in data set [8] (setting [18]) it was 100%. Moreover, the “% Injury BYG” value in data set [8] (setting [19]) is given as 100%; in data set [8] (setting [20]), 100%; in [10] (setting [21]), 95%; in data set [10] (setting [22]), 95%; in data set [10] (setting [23]) it was 95%; in data set [10] (setting [24]), 95%. Moreover, the “% Injury BYG” value is reported as 65% in data set [12] (setting [25]); 60% in [12] (setting [26]); 50% in data set [12] (setting [27]); 70% in data set [12] (setting [28]); 80% in [12] (setting [29]); 85% in data set [12] (setting [30]). For the same molecule, the “% Injury BYG” value in data set [12] (setting [31]) is given as 85%; in data set [12] (setting [32]) it was 90%; in [12] (setting [33]), 80%; in [12] (setting [21]) it was 75%; in data set [12] (setting [22]) it was 80%; in data set [12] (setting [34]) it was 95%. For the same molecule, the “% Injury BYG” value in data set [12] (setting [35]) stood at 0%. Besides, the “% Injury VL” value in [9] (setting [13]) stood at 95%; in data set [9] (setting [14]) it was 95%; in data set [9] (setting [15]), 98%; in data set [9] (setting [16]), 98%; in data set [9] (setting [17]) it was 98%; in [9] (setting [18]), 95%. Moreover, the “% Injury VL” value in data set [9] (setting [19]) came out at 98%; in data set [9] (setting [20]) it was 99%; in data set [11] (setting [21]), 95%; in data set [11] (setting [22]) it was 95%; in data set [11] (setting [23]), 95%; in data set [11] (setting [24]) it was 95%. The “% Injury Corn” value is recorded as 70% in the data set with corn [4] (setting [21]); 15% in the data set on corn [4] (setting [22]); 35% in the data set with corn [4] (setting [23]); 30% in the data set on corn [4] (setting [24]); 48% in the data set on corn [5] (setting [13]); 18% in the data set with corn [5] (setting [14]). The “% Injury Corn” value came to 53% in the data set with corn [5] (setting [15]); 40% with corn [5] (setting [16]); 43% with corn [5] (setting [17]); 55% in the data set on corn [5] (setting [18]); 80% in the data set on corn [5] (setting [19]); 55% in the data set on corn [5] (setting [20]). Moreover, the “% Injury Corn” value in the data set on corn [6] (setting [25]), with corn [6] (setting [26]), in the data set with corn [6] (setting [27]), in the data set on corn [6] (setting [28]), in the data set with corn [6] (setting [29]) and in the data set with corn [6] (setting [30]) was 0% each time. For the same molecule, the “% Injury Corn” value in the data set with corn [6] (setting [31]) came out at 5%; in the data set on corn [6] (setting [32]), 0%; in the data set with corn [6] (setting [33]), 0%; in the data set with corn [6] (setting [21]), 5%; in the data set with corn [6] (setting [22]), 5%; in the data set on corn [6] (setting [34]), 5%. In the data set on corn [6] (setting [35]), the “% Injury Corn” value is 0%.
